Publication PMC12016938, “A small molecule PKCε inhibitor reduces hyperalgesia induced by paclitaxel or opioid withdrawal” (JCI Insight, 2025)
Where “and” joins values, the source holds several entries; their conditions need not be identical. Equal entries are not always repeated. Where two headings read alike, the source gives them in different places.

Assays:
Plasma stability = conditions: for % Absolute: human plasma (hPL); for half-life: human
Description: Plasma stability. To determine in vitro plasma stability, we calculated in vitro plasma half-life. We incubated test substances (0.6 μL) with 60 μL human plasma (BioIVT) in quadruplicate at 37°C.

PKCε = target: T1, PKCε (Homo sapiens, UniProt Q02156); assay: PKCε activity with increasing ATP and CP612 (ATP competition); type: biochemical; parameters: His; AVI; made in house; host or cells: Sf9 cells; conditions: without CP612; 95% CI 2.23–7.61 μM
T1 sequence (Q02156 1-737): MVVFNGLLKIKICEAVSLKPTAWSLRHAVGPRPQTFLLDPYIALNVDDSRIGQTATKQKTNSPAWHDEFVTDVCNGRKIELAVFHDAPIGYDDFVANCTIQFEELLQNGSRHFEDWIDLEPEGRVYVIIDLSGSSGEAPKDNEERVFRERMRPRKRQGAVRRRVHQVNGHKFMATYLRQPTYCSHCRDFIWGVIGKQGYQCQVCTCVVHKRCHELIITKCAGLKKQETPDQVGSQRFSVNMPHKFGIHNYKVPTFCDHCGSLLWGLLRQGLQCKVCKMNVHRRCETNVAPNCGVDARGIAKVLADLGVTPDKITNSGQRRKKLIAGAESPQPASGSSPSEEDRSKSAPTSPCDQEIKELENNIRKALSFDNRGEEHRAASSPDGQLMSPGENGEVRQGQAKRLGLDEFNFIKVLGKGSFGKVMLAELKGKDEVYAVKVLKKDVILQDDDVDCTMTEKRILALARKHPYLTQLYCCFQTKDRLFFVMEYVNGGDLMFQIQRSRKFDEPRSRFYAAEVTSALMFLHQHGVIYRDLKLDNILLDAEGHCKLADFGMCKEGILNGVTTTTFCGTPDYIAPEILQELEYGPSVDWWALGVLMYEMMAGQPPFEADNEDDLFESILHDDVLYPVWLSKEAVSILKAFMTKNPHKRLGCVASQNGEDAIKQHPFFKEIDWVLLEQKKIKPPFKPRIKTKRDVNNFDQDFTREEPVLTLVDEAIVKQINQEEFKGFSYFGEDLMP
Description: Therefore, we assayed PKCε activity with increasing concentrations of ATP and in the presence of increasing concentrations of CP612.
Kinase assays. CP612 was assayed against His-AVI–tagged human PKCε (1 nM) produced in Sf9 cells, and ROCK1 (Carna Biosciences; 5 nM) using the Lance-FRET kinase assay system (PerkinElmer Revvity). Other human recombinant PKCs (SignalChem Biotech) were assayed in triplicate at the following concentrations: PKCβII 1.6 nM, PKCγ 500 pM, PKCδ 5 nM, PKCθ 500 pM, and PKCζ 500 pM. PKCs were incubated in a 15 μL reaction volume with kinase buffer (20 mM Tris-HCL [pH 7.4], 10 mM MgCl2, 0.25 mM EGTA, 0.1 mg/mL BSA, and 0.15% Triton X-100), 50 nM ULight-labeled CREBtide […] (PerkinElmer, TRF0107, Revvity), and test compound. […] after 60 minutes with 10 μL of 2.5× Stop Solution/Detection Mix containing 20 mM EDTA and 4 nM LANCE Ultra Europium anti–phospho-[…] peptide antibody (PerkinElmer, TRF0200, Revvity). After incubation at 27°C for another 60 minutes, phosphorylation was detected using a FlexStation 3 Microplate Reader (Molecular Devices) in LANCE TR-FRET mode (excitation = 340 nm, emission = 665 nm) and expressed as relative fluorescence units (RFU). The percentage of inhibition was calculated as: (signal without test compound − signal with test compound)/(signal without test compound − signal without ATP) × 100. The Z’ factor for this assay ranged between 0.72 and 0.86.

[1] = Plasma protein binding, equilibrium dialysis (RED); type: in vitro ADME, human; conditions: for % Recovery / recovery at 4 h, 10 µM: PBS + Plasma relative to starting concentration of 10 uM
Description: Plasma protein binding. Binding of CP612 to human plasma proteins was measured by equilibrium dialysis using a Rapid Equilibrium Dialysis (RED) Device (Thermo Fisher Scientific). The device uses plates with wells preloaded with equilibrium dialysis membrane inserts, each of which includes 2 side-by-side chambers separated by a dialysis membrane. […] All compounds were tested in triplicate. […] A total of 200 μL of diluted test compound was then added to the plasma chambers of triplicate wells of a 48-sample RED plate (Thermo Fisher Scientific). In total, 400 μL of 0.1M PBS buffer were added to each buffer chamber. The plate was sealed with adhesive foil and incubated at 37°C with shaking for 4 hours, after which 30 μL were removed from each chamber and diluted with either 30 μL of plasma (for buffer chamber samples) or 30 μL of 0.1M PBS (for plasma chamber samples). Samples were extracted with 3 volumes of acetonitrile, centrifuged at 16,000g at 4°C for 10 minutes, and analyzed by LC-MS to calculate the amount of drug in each chamber. The percentage of free compound was calculated as the concentration in the buffer chamber/concentration in the plasma chamber × 100%. The percentage of protein-bound compound was calculated as 100% – the percentage of free compound.

Microsomal clearance = conditions: for half-life at 8.5 μM: both, human, microsomes; for % Absolute: human liver microsomes (HLM)
Description: Microsomal clearance. To determine if CP612 was a likely substrate for first-pass hepatic metabolism, we measured the stability of CP612 in the presence of human liver microsomes (BioIVT) pooled from over 100 male and female individuals. […] Test compounds were diluted to 10 μM in 0.1M PBS, and then 51 μL were dispensed in quadruplicate into wells of a 96-well plate, which was shaken at 600 rpm at 37°C. Reactions were initiated by adding 1.5 μL of microsomes (20 mg/mL) to the wells and 3 minutes later adding 7.5 μL of 8 mM NADPH (1 mM final concentration). Samples incubated without NADPH were used as negative controls.

[2] = time 0 min, individual replicates
[3] = time 15 min, individual replicates
[4] = time 30 min, individual replicates
[5] = time 60 min, individual replicates
[6] = (Corrected concentration in PBS / Corrected concentration in Plasma) * 100, individual replicates
[7] = human, individual replicates, read-out: % Recovery
[8] = human, mean of replicates, read-out: % Recovery, Mean

## CCN(CC)CCOC(=O)c1ccc(N)cc1 [Procaine, reference compound]
Plasma stability; [2]
  % Absolute: 122.69% and 106.84% and 107.17% and 113.76%
Plasma stability; [3]
  % Absolute: 0.17% and 0.32% and 0.18%
Plasma stability; [4]
  % Absolute: 0.00%
Plasma stability; [5]
  % Absolute: 0.00%
Plasma stability; time 180 min, individual replicates
  % Absolute: 0.00%
Plasma stability; human plasma, 37°C
  Plasma stability Cl: 25.29 ± 1.35 µL/min
Plasma stability; human plasma, individual replicates
  Cl (clearance): 26.280 and 23.303 and 25.557 and 26.005
Plasma stability; human plasma, individual replicates, time axis in min, in min
  t1/2 (half life): 1.785 and 1.627 and 1.599
Plasma stability; human plasma, Plasma stability t½ (min), 37°C
  half-life: 1.65 ± 0.09 min
Plasma stability; plasma, t1/2 (half life), Mean, human plasma, mean of replicates, time axis in min
  half-life: 1.65 min
Plasma stability; plasma, t1/2 (half life), human plasma, individual replicates, time axis in min
  half-life: 1.58 min

## Nc1ncnc2c1ncn2[C@@H]1O[C@H](COP(=O)(O)OP(=O)(O)OP(=O)(O)O)[C@@H](O)[C@H]1O [ATP]
PKCε
  EC50: 4.2 µM

## C[C@]12CC[C@H]3[C@@H](CCC4=CC(=O)CC[C@@]43C)[C@@H]1CC[C@@H]2O [Testosterone]
[1]; [6]
  % Free: 6.33% and 6.14%
[1]; individual replicates
  % Recovery: 74.81% and 77.04%
  % Bound: 93.67% and 93.86%
[1]; PBS compartment, relative to starting concentration of 10 uM, individual replicates
  % Absolute (Sample_PBS): 4.21% and 4.46% and 4.45%
[1]; human plasma, individual replicates, read-out: % Bound (converted)
  fraction unbound at 4 h, 10 μM: 0.0593
[1]; [7]
  recovery at 4 h, 10 µM: 75.2%
[1]; [8]
  recovery at 4 h, 10 µM: 75.7%
[1]; human, plasma, (Corrected concentration in PBS / Corrected concentration in Plasma) * 100, individual replicates, read-out: % Free
  fraction unbound at 4 h, 10 μM: 0.0593
[1]; human, plasma, human plasma, 37°C, 4 hours, read-out: Plasma protein binding (% bound) (converted)
  fraction unbound at 4 h, 10 μM: 0.0613
[1]; human, plasma, mean of replicates, read-out: % Bound, Mean (converted)
  fraction unbound at 4 h, 10 μM: 0.0613
[1]; human, plasma, mean of replicates, read-out: % Free, Mean
  fraction unbound at 4 h, 10 μM: 0.0613
[1]; plasma compartment, relative to starting concentration of 10 uM, individual replicates
  % Absolute (Sample_Plasma): 70.98% and 70.35% and 72.59%
Microsomal clearance; HLM, individual replicates, time axis in min
  t1/2 (half life): 14.3079 and 11.3615 and 11.8498
Microsomal clearance; Microsomal clearance t½ (min), human liver microsomes, NADPH
  half-life at 8.5 μM: 12.7 ± 1.37 min
Microsomal clearance; t1/2 (half life), HLM, individual replicates, time axis in min
  half-life at 8.5 μM: 13.4 min
Microsomal clearance; t1/2 (half life), Mean, HLM, mean of replicates, time axis in min
  half-life at 8.5 μM: 12.7 min
Microsomal clearance; [2]
  % Absolute: 122.56% and 99.88% and 106.38% and 105.61%
Microsomal clearance; time 5 min, individual replicates
  % Absolute: 82.74% and 96.20% and 86.80% and 92.26%
Microsomal clearance; [3]
  % Absolute: 59.56% and 70.78%
Microsomal clearance; [4]
  % Absolute: 54.15% and 32.42% and 34.78% and 45.15%
Microsomal clearance; time 60 min, -NADPH, individual replicates
  % Absolute: 125.64% and 123.20% and 118.26% and 117.65%
Microsomal clearance; [5]
  % Absolute: 5.58% and 4.76% and 2.71% and 3.01%
Microsomal clearance; human liver microsomes, NADPH
  Microsomal clearance Cl: 109.81 ± 11.69 µL/min

## COCCc1ccc(OCC(O)CNC(C)C)cc1 (stereo not shown) [Metoprolol, metoprolol]
[1]; [6]
  % Free: 91.52%
[1]; individual replicates
  % Recovery: 70.00% and 78.51%
  % Bound: 8.48% and 10.85%
[1]; [7]
  recovery at 4 h, 10 µM: 66.7%
[1]; [8]
  recovery at 4 h, 10 µM: 71.8%
